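Cultured in 96-well plates, cells were exposed to test compound for 48 hours across five concentrations. GI50 marks 50% less growth. TGI: concentration producing complete growth inhibition.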
Legend:
Test in all cases: NCI tumour cell line growth inhibition, 48 h
LXFL 529 NSCLC = system: LXFL 529 NSCLC
RXF-631 renal = system: RXF-631 renal
DMS 273 small cell lung = system: DMS 273 small cell lung
PC-3 prostate = system: PC-3 prostate
KM20L2 colon = system: KM20L2 colon
MDA-N = system: MDA-N

| Structure (SMILES) | TGI (LXFL 529 NSCLC) | TGI (RXF-631 renal) | TGI (DMS 273 small cell lung) | TGI (PC-3 prostate) | TGI (KM20L2 colon) | TGI (MDA-N) | GI50 (PC-3 prostate) |
| --- | --- | --- | --- | --- | --- | --- | --- |
| CCOC(=O)C(=Cc1ccc(Oc2ccccc2)cc1)C(=O)OCC | 6.39 µM | 12.1 µM | 3.68 µM | 6.12 µM | 16.8 µM | 18.6 µM |  |
| O=C(CCC(=O)C(C(=O)c1ccccc1)c1ccccc1)Nc1cccc(C(F)(F)F)c1 (stereo unspecified) | > 100 µM |  | > 100 µM |  | > 100 µM |  |  |
| COc1ccc(-c2nc3ccccn3c2/C=C/C(=O)c2cc(OC)c(OC)c(OC)c2)cc1 |  |  |  | > 100 µM |  |  | 19.8 µM |
| O=CC[C@H]1CCc2ccccc2C12CCC(=O)CC2 | > 100 µM | > 100 µM |  |  | > 100 µM |  |  |
| Cc1ccc(S(=O)(=O)OCC23CCC(CC2)C2CC23)cc1 (stereo unspecified) | > 100 µM | > 100 µM | > 100 µM |  | > 100 µM |  |  |
| CCN(C(=O)c1cc(F)ccc1Oc1cncnc1N1CC2(CCN(CC3CCC(NS(=O)(=O)CC)CC3)CC2)C1)C(C)C (stereo unspecified) |  |  |  | > 100 µM |  |  | > 100 µM |
| CCC(=O)c1c(NOC2OC(COC(C)=O)C(OC(C)=O)C(OC(C)=O)C2OC(C)=O)nc(OC)n(C)c1=O (stereo unspecified) | > 100 µM | > 100 µM | > 100 µM |  | > 100 µM |  |  |
| COc1ccc(/C(C#N)=C/c2ccc(OC)c(OC)c2)cc1 |  |  |  | > 100 µM |  | > 100 µM |  |
| C[C@@H](CO)[C@@H]1CCC=C2CC[C@]3(C)[C@H](CC[C@@H]4[C@@]5(C)CCCNC(C)(C)[C@@H]5CC[C@]43C)[C@H]21 |  |  |  | 13.4 µM |  |  | 2.97 µM |
| O=C(NCc1ccc(Cn2c(=O)sn(-c3ccccc3)c2=O)cc1)OCc1ccc2c(Br)cc(Br)c(O)c2n1 |  |  |  | 2.18 µM |  |  | 0.727 µM |
| c1cc(CNCCN2CCNCC2)ccn1 |  |  |  | > 100 µM |  | > 100 µM |  |
| O=[N+]([O-])c1cccc(-c2oc(C=Nc3ccccc3)c([N+](=O)[O-])c2-c2cccc([N+](=O)[O-])c2)c1 | > 100 µM | > 100 µM | > 100 µM |  | > 100 µM |  |  |
| C1=CC=C2NCCCNC3=CC=CC=CC3=NCCCN=C2C=C1 | > 100 µM | > 100 µM | > 100 µM |  | > 100 µM |  |  |
| O=C1C2C3C=CC(C2C(=O)N1COP(=O)(O)O)C1C2C(=O)N(COP(=O)(O)O)C(=O)C2C31 (stereo unspecified) | > 100 µM |  | > 56.3 µM |  | > 100 µM |  |  |
| C=C1CC/C=C(\C)C(=O)C[C@@H]2[C@@H]1CC2(C)C |  |  |  | 26.1 µM |  | 3.16 µM |  |
| NC(=O)c1cc(-c2ccc(F)cc2)cc(-c2ccncc2)c1N |  |  |  | > 25 µM |  |  | > 25 µM |
| COc1cc(COC(=O)N(CC(=O)O)c2ccccc2)c([N+](=O)[O-])cc1OC |  |  |  | > 100 µM |  | > 100 µM |  |
| O=c1[nH]c(=O)n(C2CC(O)C(CO)O2)cc1C1=NC1 (stereo unspecified) |  |  |  |  |  | > 100 µM |  |
| NCCCNCCCCN(CCCN)/[N+]([O-])=N\O | > 100 µM | > 100 µM | > 100 µM |  | > 100 µM |  |  |

| Structure (SMILES) | TGI (LXFL 529 NSCLC) | TGI (RXF-631 renal) | TGI (DMS 273 small cell lung) | TGI (PC-3 prostate) | TGI (KM20L2 colon) | TGI (MDA-N) | GI50 (PC-3 prostate) |
| --- | --- | --- | --- | --- | --- | --- | --- |
| CC1OC(OC2C(O[C@H]3CC[C@@]4(C)C(=CC[C@H]5[C@@H]6C[C@@H]7O[C@]8(CC[C@H](C)CN8)[C@@H](C)[C@@H]7[C@@]6(C)CC[C@@H]54)C3)OC(CO)C(O)C2OC2OC(CO)C(O)C(O)C2O)C(O)C(O)C1O (stereo partly specified) |  |  |  | 33.5 µM |  | 36.1 µM |  |
| CN1CCN(c2ccc3nc(-c4ccc5nc(-c6ccc(OCCC(C)(C)C)cc6)[nH]c5c4)[nH]c3c2)CC1 |  |  |  | 5.81 µM |  |  | 2.63 µM |
| C=C(Br)N(CC)CC | > 100 µM | > 100 µM | > 100 µM |  | > 100 µM |  |  |
| O=C(CC1(O)C(=O)Nc2c(Cl)cc(Cl)cc21)c1cccc2ccccc12 (stereo unspecified) | 28.6 µM | 43.3 µM | 27.5 µM |  | 34.1 µM |  |  |
| CN(CC(=O)N(Cc1ccc(C2CCCCC2)cc1)c1ccc(C(=O)O)c(O)c1)S(=O)(=O)c1c(F)c(F)c(F)c(F)c1F |  |  |  | 27.7 µM |  |  | 12.2 µM |
| Nc1nc(-c2ccccc2)nc(N)c1N=O |  |  |  | 66.3 µM |  |  | 18.6 µM |
| COc1cc(OC)c(C2CC=Cc3c(OC)cc(OC)c(OC)c32)cc1OC (stereo unspecified) | > 100 µM |  | > 100 µM |  | > 100 µM |  |  |
| O=C(Cc1nc2ccccc2s1)Nc1cccc(C(F)(F)F)c1 | 27.3 µM | 26.8 µM | 42.9 µM |  | 41.6 µM |  |  |
| CC(=O)O[C@]1(C(C)=O)CC[C@H]2[C@@H]3C=C(C)C4=CC(=O)CC[C@]4(C)[C@H]3CC[C@@]21C |  |  |  | > 100 µM |  |  | 42.6 µM |
| CC(=O)OC(CCC1(C)OC1COc1ccc(CCNC(=O)c2ccccc2)cc1)C(C)(C)OC(C)=O (stereo unspecified) | 34.6 µM |  | 24.8 µM |  | > 100 µM |  |  |
| S=c1cc(S)sc2c1c(=S)sc1nc3ccccn3c(=S)c12 |  |  | > 100 µM |  | > 100 µM |  |  |
| O=C(Nc1ccccc1)NS(=O)(=O)c1ccc(-n2nc3c(c2-c2ccc(Cl)cc2)Cc2ccccc2-3)cc1 |  |  |  | 47.8 µM |  |  | 16.7 µM |
| COc1cc(Nc2ccnc(NCCCNc3ccnc4cc(Cl)ccc34)n2)cc(OC)c1 |  |  |  | 14.2 µM |  |  | 2.68 µM |
| CN1c2ccccc2C(C)(C)C12C=Cc1cc(O)ccc1O2 (stereo unspecified) |  |  |  | 12.6 µM |  |  | 3.6 µM |
| C1CCN(c2nc(=[N+]3CCCCC3)ss2)CC1 | > 100 µM | > 100 µM | > 100 µM |  | > 100 µM |  |  |
| C[C@]1(CO)CCC[C@@]2(C)C1CC[C@H]1CC3C[C@]12CC[C@]3(C)O (stereo partly specified) |  | > 100 µM | > 100 µM |  | > 100 µM |  |  |
| COc1ccc2c(c1)C(=O)c1c-2c(Nc2ccc(Cl)cc2)nc2ccccc12 |  |  |  | 63.3 µM |  |  | 15.5 µM |
| O=C(O)c1cccc(N=Nc2c(S(=O)(=O)O)ccc3c2C(=O)c2ccccc2C3=O)c1O |  |  |  | > 100 µM |  | > 100 µM |  |
